Results as given in publication PMC10619693, “Structural identification of catalytic His158 of PtMAC2p from Pseudozyma tsukubaensis, an acyltransferase involved in mannosylerythritol lipids formation” (Frontiers in Bioengineering and Biotechnology, 2023).

Biological target: T1, PtMAC2p (Pseudozyma tsukubaensis, UniProt A0A2Z6ERP5)
T1 construct: gene PtMAC2
Test: DTNB (Ellman) assay of CoA release, absorbance at […] nm
Type: biochemical
Settings: 0.1 mM lauroyl-CoA; co-substrate 1 mM mono-acylated MEL-D; 1 mM DTNB; 50 mM sodium phosphate pH 7.2, 25 °C

T1 sequence (A0A2Z6ERP5 1-549): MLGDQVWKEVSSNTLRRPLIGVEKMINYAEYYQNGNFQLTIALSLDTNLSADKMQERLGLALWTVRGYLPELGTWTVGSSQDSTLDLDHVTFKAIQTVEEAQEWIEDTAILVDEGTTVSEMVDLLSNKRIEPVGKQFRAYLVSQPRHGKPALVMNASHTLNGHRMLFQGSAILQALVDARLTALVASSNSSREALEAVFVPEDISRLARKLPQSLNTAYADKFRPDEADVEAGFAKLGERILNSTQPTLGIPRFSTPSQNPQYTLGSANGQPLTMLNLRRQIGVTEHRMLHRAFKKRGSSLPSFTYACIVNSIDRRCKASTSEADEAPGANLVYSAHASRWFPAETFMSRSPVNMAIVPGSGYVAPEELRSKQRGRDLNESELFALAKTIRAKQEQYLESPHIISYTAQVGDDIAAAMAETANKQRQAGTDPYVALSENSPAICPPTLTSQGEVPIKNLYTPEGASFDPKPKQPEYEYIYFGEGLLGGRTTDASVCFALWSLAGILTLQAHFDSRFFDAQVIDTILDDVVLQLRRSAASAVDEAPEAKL

CCCCCCCCCCCC(=O)SCCNC(=O)CCNC(=O)[C@H](O)C(C)(C)COP(=O)(O)OP(=O)(O)OC[C@H]1O[C@@H](n2cnc3c(N)ncnc32)[C@H](O)[C@@H]1OP(=O)(O)O [lauroyl-CoA]
DTNB (Ellman) assay of CoA release, absorbance at 412 nm: Purified PtMAC2p catalyzes the transfer of a fatty acid of lauroyl-CoA (C12)
